Data as given in the NIST ThermoML archive (doi:10.1016/j.tca.2014.07.025).

Experiment: mn = molality of the nth substance listed, in mol/kg
Settings: 100 kPa, Liquid; for speed of sound: Frequency=3 MHz, Sing-around technique in a fixed-path interferometer; for mass density: Vibrating tube method

NCC(=O)NCC(=O)O [glycylglycine] + O
Settings | mass density, 305.15 K [kg/m3] | mass density, 310.15 K [kg/m3] | mass density, 315.15 K [kg/m3] | speed of sound, 305.15 K [m/s] | speed of sound, 310.15 K [m/s] | speed of sound, 315.15 K [m/s]
m1 = 0.00206 | 995.2 | 993.513 | 991.618 | 1514.1 | 1524.1 | 1532.4
m1 = 0.00597 | 995.41 | 993.721 | 991.824 | 1514.8 | 1524.7 | 1532.9
m1 = 0.00797 | 995.517 | 993.827 | 991.929 | 1515.2 | 1525.1 | 1533.5
m1 = 0.01021 | 995.637 | 993.946 | 992.047 | 1515.4 | 1525.2 | 1533.6
m1 = 0.02015 | 996.168 | 994.474 | 992.568 | 1515.8 | 1525.6 | 1534
m1 = 0.05037 | 997.778 | 996.073 | 994.147 | 1517.8 | 1527.5 | 1535.8
m1 = 0.1008 | 1000.45 | 998.723 | 996.764 | 1521.6 | 1531.2 | 1539.4
m1 = 0.2021 | 1005.75 | 1003.99 | 1001.97 | 1529.5 | 1538.8 | 1546.9
m1 = 0.2959 | 1010.58 | 1008.79 | 1006.71 | 1536 | 1545.4 | 1553
m1 = 0.4 | 1015.86 | 1014.03 | 1011.88 | 1542.5 | 1551.6 | 1559.3
